How the values were obtained:
[1] = target: T1, human Nav1.5 channels stably expressed in HEK 293 cells (Homo sapiens, UniProt Q14524); assay: PatchXpress 7000 automated patch-clamp, sodium current; assay type: cell-based; details: selectivity over Nav1.5
T1 construct: expressed in transfected cells
From the text: (§1) To measure state and use-dependent sodium channel inhibition, test compounds were further characterized in an automated PatchXpress® assay (Molecular Devices). Two voltage-clamp protocols were used. 1) Use-dependent protocol: Cells were held at a membrane potential 20 mV negative to the potential at which ˜50% of the channels are inactivated (V0.5 inact). A train of 30 ms depolarizations to −20 mV was applied to the cells expressing Nav1.7 at a frequency of 10 Hz. […] Data was collected in the absence and presence of drug, and after drug washout. 2) A double-pulse protocol was used to measure inactivated state block. Cells were held at a potential 20 mV negative to V0.5 inact. A 8000 ms pre-pulse 7 mV positive to V0.5 inact was given followed by a hyperpolarizing 2 ms pulse to −120 mV and a 20 ms test pulse to −20 mV. Protocol was applied to cells in the absence, presence of compound and after washout. The temperature of PatchXpress instruments was maintained at 22° C. The following recording solutions were used. Internal solution (mM): 30 CsCl, 5 HEPES, 10 EGTA, 120 CsF, 5 NaF, 2MgCl2, pH=7.3 with CsOH, 324 mosmo. External solution (mM): 120 NMDG, 40 NaCl, 1 KCl, 0.5 MgCl2, 5 HEPES, 2.7 CaCl2, pH=7.5 with NMDG-OH.
(§2) For all electrophysiology experiments, offline analysis was used to correct for current rundown and to determine percent inhibition as a function of drug concentration. IC50 values were determined by fitting to the Hill equation.

[2] = target: T2, human Nav1.7 channels stably expressed in HEK 293 cells (Homo sapiens, UniProt Q15858); assay: as above; assay type: cell-based; details: 22° C., read-out: potency for the Nav 1.7 sodium ion channel (as measured by PatchXpress)
T2 construct: expressed in transfected cells
T2 sequence (Q15858 whole entry): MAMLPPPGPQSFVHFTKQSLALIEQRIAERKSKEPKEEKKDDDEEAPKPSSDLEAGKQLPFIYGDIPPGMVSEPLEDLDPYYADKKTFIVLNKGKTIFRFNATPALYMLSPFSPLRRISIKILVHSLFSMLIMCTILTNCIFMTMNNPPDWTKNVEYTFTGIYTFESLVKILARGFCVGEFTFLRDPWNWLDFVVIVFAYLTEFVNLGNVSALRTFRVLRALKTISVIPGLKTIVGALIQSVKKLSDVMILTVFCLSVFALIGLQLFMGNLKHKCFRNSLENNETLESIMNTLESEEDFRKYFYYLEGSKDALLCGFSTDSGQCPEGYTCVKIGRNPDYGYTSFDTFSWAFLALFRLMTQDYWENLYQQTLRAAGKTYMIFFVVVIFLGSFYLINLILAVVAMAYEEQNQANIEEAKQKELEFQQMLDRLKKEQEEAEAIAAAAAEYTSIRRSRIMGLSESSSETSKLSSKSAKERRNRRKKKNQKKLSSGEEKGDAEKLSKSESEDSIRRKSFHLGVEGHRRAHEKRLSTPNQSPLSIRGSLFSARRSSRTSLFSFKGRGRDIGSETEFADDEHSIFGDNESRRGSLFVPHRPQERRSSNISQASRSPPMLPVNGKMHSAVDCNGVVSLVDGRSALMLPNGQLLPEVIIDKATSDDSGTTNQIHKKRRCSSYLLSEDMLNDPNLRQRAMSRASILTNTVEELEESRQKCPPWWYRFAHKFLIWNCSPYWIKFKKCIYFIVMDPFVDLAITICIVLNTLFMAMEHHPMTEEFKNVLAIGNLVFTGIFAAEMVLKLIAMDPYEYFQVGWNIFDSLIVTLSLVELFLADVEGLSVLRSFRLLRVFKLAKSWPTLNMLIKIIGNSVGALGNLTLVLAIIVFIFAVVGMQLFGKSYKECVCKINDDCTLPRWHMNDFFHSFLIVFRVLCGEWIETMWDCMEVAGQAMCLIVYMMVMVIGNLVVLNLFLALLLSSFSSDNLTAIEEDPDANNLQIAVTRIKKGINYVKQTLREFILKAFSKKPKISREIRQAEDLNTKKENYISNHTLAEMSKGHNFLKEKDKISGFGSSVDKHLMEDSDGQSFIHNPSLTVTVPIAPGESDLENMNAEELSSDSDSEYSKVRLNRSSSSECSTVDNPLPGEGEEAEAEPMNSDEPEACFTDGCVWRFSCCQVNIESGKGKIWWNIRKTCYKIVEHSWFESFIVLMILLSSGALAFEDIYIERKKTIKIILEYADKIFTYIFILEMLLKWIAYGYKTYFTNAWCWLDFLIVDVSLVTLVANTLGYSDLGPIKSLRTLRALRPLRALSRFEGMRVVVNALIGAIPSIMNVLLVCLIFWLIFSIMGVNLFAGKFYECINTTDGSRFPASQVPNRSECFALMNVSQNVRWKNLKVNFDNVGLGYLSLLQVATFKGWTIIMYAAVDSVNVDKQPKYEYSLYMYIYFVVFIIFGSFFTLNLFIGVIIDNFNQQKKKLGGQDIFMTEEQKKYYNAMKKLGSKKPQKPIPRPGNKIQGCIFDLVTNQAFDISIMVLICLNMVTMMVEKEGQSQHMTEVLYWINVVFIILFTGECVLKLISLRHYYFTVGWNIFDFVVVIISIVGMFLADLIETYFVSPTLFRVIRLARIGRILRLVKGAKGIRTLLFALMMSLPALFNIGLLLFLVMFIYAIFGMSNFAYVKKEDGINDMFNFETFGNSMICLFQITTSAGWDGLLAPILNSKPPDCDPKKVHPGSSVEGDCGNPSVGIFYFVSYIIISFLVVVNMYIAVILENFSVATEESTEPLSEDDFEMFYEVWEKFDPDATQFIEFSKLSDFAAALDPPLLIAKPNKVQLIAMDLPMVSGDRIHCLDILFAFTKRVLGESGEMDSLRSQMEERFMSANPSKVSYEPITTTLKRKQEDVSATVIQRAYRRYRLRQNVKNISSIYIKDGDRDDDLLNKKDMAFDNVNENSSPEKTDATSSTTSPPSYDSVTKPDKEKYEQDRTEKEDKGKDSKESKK
From the text: as §1, §2

T1 sequence (Q14524 whole entry): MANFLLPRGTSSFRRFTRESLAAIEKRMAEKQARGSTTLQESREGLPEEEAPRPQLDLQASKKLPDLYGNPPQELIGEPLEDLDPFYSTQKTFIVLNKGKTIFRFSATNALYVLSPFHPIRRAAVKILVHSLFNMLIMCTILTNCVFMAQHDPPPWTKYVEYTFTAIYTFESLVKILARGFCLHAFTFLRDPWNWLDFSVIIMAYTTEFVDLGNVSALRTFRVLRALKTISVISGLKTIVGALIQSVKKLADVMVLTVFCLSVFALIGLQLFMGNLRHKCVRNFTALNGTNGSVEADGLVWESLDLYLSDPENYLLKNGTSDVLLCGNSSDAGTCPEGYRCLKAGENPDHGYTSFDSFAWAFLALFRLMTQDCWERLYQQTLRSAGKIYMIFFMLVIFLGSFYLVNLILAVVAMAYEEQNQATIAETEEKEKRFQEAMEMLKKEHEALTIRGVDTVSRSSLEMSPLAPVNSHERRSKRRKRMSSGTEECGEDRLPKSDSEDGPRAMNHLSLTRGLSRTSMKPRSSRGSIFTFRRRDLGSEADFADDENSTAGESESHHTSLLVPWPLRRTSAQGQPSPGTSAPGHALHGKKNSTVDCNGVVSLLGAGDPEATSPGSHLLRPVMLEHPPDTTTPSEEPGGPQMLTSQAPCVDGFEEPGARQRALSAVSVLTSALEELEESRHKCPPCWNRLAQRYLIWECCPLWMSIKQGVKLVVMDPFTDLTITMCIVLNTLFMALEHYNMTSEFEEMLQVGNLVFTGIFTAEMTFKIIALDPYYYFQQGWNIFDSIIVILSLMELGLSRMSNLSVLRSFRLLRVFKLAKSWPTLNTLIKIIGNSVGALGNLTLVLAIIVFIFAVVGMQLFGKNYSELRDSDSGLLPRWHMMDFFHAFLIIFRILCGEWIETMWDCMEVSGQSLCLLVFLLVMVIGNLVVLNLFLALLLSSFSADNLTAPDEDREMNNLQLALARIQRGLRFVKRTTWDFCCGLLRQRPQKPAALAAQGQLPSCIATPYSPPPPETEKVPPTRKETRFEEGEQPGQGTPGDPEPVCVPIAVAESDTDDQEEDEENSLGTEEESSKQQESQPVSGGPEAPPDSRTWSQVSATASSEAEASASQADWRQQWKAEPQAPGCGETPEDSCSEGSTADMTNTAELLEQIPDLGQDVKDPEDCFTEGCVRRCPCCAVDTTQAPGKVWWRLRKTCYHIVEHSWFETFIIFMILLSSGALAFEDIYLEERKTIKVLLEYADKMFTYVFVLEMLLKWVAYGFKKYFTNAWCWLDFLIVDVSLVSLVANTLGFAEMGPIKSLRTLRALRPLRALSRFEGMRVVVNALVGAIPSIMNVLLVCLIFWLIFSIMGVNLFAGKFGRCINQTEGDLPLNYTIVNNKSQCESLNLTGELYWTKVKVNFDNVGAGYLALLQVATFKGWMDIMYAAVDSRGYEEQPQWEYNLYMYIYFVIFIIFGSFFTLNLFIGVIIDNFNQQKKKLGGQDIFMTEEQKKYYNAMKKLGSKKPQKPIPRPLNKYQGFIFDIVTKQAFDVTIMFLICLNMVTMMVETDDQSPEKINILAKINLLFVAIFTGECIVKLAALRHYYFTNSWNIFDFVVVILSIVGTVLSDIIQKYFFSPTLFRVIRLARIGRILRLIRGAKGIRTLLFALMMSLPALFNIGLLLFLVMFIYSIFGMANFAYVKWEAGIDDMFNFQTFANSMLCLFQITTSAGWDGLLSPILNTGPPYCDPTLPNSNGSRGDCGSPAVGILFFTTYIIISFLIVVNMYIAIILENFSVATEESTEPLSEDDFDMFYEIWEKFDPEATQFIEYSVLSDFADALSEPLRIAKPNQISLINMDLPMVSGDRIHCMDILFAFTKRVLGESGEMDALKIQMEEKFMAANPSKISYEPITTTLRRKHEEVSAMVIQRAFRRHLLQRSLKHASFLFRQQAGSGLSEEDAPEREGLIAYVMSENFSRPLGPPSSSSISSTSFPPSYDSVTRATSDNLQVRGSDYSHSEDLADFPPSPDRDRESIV

Row | SMILES | ratio of Nav 1.5:Nav 1.7 potency, determined by PatchXpress measurement [1] | IC50 [2] [nM]
1 | Nc1ccc2c(c1)C(n1c(=O)oc3cc(S(=O)(=O)Nc4ncns4)c(F)cc31)CCC2 (stereo not drawn) [Compound 39-3] | 1196 | 41
2 | C[C@H](c1cccc(-c2ccn(C)n2)c1)n1c(=O)oc2cc(S(=O)(=O)Nc3ncns3)c(F)cc21 [Compound 28-3, (R)-5-Fluoro-3-(1-(3-(1-methyl-1H-pyrazol-3-yl)phenyl)ethyl)-2-oxo-N-(1,2,4-thiadiazol-5-yl)-2,3-dihydrobenzo[d]oxazole-6-sulfonamide] | 86 | 306
3 | C[C@H](c1cccc(C#CC2(N)CCCCC2)c1)n1c(=O)oc2cc(S(=O)(=O)Nc3ncns3)c(F)cc21 [Compound 30-4] | 309 | 10
4 | CN(C)C1CCc2cccc(Cn3c(=O)oc4cc(S(=O)(=O)Nc5ncns5)c(F)cc43)c2C1 (racemic) [Compound 23-15, (+/−)-3-{[7-(dimethylamino)-5,6,7,8-tetrahydronaphthalen-1-yl]methyl}-5-fluoro-2-oxo-N-1,2,4-thiadiazol-5-yl-2,3-dihydro-1,3-benzoxazole-6-sulfonamide] | 207 | 72
5 | O=c1oc2cc(S(=O)(=O)Nc3ncns3)c(F)cc2n1Cc1cccc2c1CC(NCCF)CC2 (racemic) [Compound 23-21, (+/−)-5-fluoro-3-({7-[(2-fluoroethyl)amino]-5,6,7,8-tetrahydronaphthalen-1-yl}methyl)-2-oxo-N-1,2.4-thiadiazol-5-yl-2,3-dihydro-1,3-benzoxazole-6-sulfonamide] | 920 | 28
6 | C[C@H](c1cccc2c1CNCC2)n1c(=O)oc2cc(S(=O)(=O)Nc3nccs3)ccc21 [Compound 42-1, (R)-2-oxo-3-(1-(1,2,3,4-tetrahydroisoquinolin-8-yl)ethyl)-N-(thiazol-2-yl)-2,3-dihydrobenzo[d]oxazole-6-sulfonamide] | 1017 | 30
7 | O=c1oc2cc(S(=O)(=O)Nc3nccs3)c(F)cc2n1C1CC2(CCC2)Oc2ccc(Br)cc21 (stereo not drawn) [Compound 43-10, 3-(6-bromo-3,4-dihydrospiro[chromene-2,1′-cyclobutan]-4-yl)-5-fluoro-2-oxo-N-1,3-thiazol-2-yl-2,3-dihydro-1,3-benzoxazole-6-sulfonamide] | 29 | 58
8 | C[C@H](c1ccccc1I)n1c(=O)oc2cc(S(=O)(=O)Nc3ncns3)c(F)cc21 [Compound 16-3, (R)-5-Fluoro-3-(1-(2-iodophenyl)ethyl)-2-oxo-N-(1,2,4-thiadiazol-5-yl)-2,3-dihydrobenzo[d]oxazole-6-sulfonamide] | 272 | 69
9 | O=c1oc2cc(S(=O)(=O)Nc3ncns3)c(F)cc2n1[C@H](CCF)c1ccccc1 [Compound 37-3] | 39 | 132
10 | C[C@H](c1ccccc1C#CCN)n1c(=O)oc2cc(S(=O)(=O)Nc3ncns3)c(F)cc21 [Compound 17-20, 3-{(1R)-1-[2-(3-aminoprop-1-yn-1-yl)phenyl]ethyl}-5-fluoro-2-oxo-N-1,2,4-thiadiazol-5-yl-2,3-dihydro-1,3-benzoxazole-6-sulfonamide] | 2324 | 13
11 | C[C@H](c1cccc(-c2ccc(O)nc2)c1)n1c(=O)oc2cc(S(=O)(=O)Nc3ncns3)c(F)cc21 [Compound 28-4, 5-fluoro-3-{(1R)-1-[3-(6-hydroxypyridin-3-yl)phenyl]ethyl}-2-oxo-N-1,2,4-thiadiazol-5-yl-2,3-dihydro-1,3-benzoxazole-6-sulfonamide] | 181 | 107
12 | C[C@H](c1ccccc1C#CC1CCCCN1)n1c(=O)oc2cc(S(=O)(=O)Nc3ncns3)c(F)cc21 (stereo partly drawn) [Compound 17-22, 5-fluoro-2-oxo-3-{(1R)-1-[2-(piperidin-2-ylethynyl)phenyl]ethyl}-N-1,2,4-thiadiazol-5-yl-2,3-dihydro-1,3-benzoxazole-6-sulfonamide] | 1456 | 13
13 | O=c1oc2cc(S(=O)(=O)Nc3ncns3)c(F)cc2n1Cc1cccc2c1C1CC1C=C2 (stereo not drawn) [Compound 11-13, 3-(1a,7b-dihydro-1H-cyclopropa[a]naphthalen-7-ylmethyl)-5-fluoro-2-oxo-N-1,2,4-thiadiazol-5-yl-2,3-dihydro-1,3-benzoxazole-6-sulfonamide] | 50 | 49
14 | NC1Cc2cccc(Cn3c(=O)oc4cc(S(=O)(=O)Nc5ncns5)ccc43)c2C1 (racemic) [Compound 23-9, (+/−)-3-[(2-amino-2,3-dihydro-1H-inden-4-yl)methyl]-2-oxo-N-1,2,4-thiadiazol-5-yl-2,3-dihydro-1,3-benzoxazole-6-sulfonamide] | 167 | 180
15 | C[C@H](c1ccccc1C1=CCCNC1)n1c(=O)oc2cc(S(=O)(=O)Nc3ncns3)c(F)cc21 [Compound 16-5, 5-fluoro-2-oxo-3-{(1R)-1-[2-(1,2,5,6-tetrahydropyridin-3-yl)phenyl]ethyl}-N-1,2,4-thiadiazol-5-yl-2,3-dihydro-1,3-benzoxazole-6-sulfonamide] | 646 | 46
16 | CC(c1cccc(-c2ccnc(CO)c2)c1)n1c(=O)oc2cc(S(=O)(=O)Nc3ncns3)c(F)cc21 (stereo not drawn) [Compound 29-3, 5-fluoro-3-(1-{3-[2-(hydroxymethyl)pyridin-4-yl]phenyl}ethyl)-2-oxo-N-1,2,4-thiadiazol-5-yl-2,3-dihydro-1,3-benzoxazole-6-sulfonamide] | 61 | 216
17 | C[C@H](c1ccccc1CCCN)n1c(=O)oc2cc(S(=O)(=O)Nc3ncns3)c(F)cc21 [Compound 33-7, (R)-3-(1-(2-(3-Aminopropyl)phenyl)ethyl)-5-fluoro-2-oxo-N-(1,2,4-thiadiazol-5-yl)-2,3-dihydrobenzo[d]oxazole-6-sulfonamide] | 166 | 51
18 | NC1CCc2cccc(Cn3c(=O)oc4cc(S(=O)(=O)Nc5ncns5)ccc43)c2C1 (single isomer, unassigned) [Compound 23-10, (R or S)-3-[(7-amino-5,6,7,8-tetrahydronaphthalen-1-yl)methyl]-2-oxo-N-1,2,4-thiadiazol-5-yl-2,3-dihydro-1,3-benzoxazole-6-sulfonamide] | 167 | 179
19 | Cc1n[nH]cc1-c1cccc([C@@H](C)n2c(=O)oc3cc(S(=O)(=O)Nc4nccs4)c(F)cc32)c1 [Compound 43-24, 5-fluoro-3-{(1R)-1-[3-(3-methyl-1H-pyrazol-4-yl)phenyl]ethyl}-2-oxo-N-1,3-thiazol-2-yl-2,3-dihydro-l,3-benzoxazole-6-sulfonamide] | 33 | 103
20 | O=c1oc2cc(S(=O)(=O)Nc3ncns3)c(F)cc2n1C1CC2(COC2)Oc2ccccc21 (stereo not drawn) [Compound 39-4, 3-(3,4-dihydrospiro[chromene-2,3′-oxetan]-4-yl)-5-fluoro-2-oxo-N-1,2,4-thiadiazol-5-yl-2,3-dihydro-1,3-benzoxazole-6-sulfonamide] | 58 | 312
21 | Cl.O=c1oc2cc(S(=O)(=O)Nc3nccs3)c(F)cc2n1Cc1cccc2c1CNCC2(F)F [Compound 44-5, 3-((4,4-Difluoro-1,2,3,4-tetrahydroisoquinolin-8-yl)methyl)-5-fluoro-2-oxo-N-(thiazol-2-yl)-2,3-dihydrobenzo[d]oxazole-6-sulfonamide hydrochloride] | 151 | 181
22 | C[C@@H](c1cccc2ccncc12)n1c(=O)oc2cc(S(=O)(=O)Nc3ncns3)ccc21 [Compound 14-9, 3-[(1S)-1-isoquinolin-8-ylethyl]-2-oxo-N-1,2,4-thiadiazol-5-yl-2,3-dihydro-1,3-benzoxazole-6-sulfonamide] | 37 | 808
23 | Nc1cccc2c1CCCC2n1c(=O)oc2cc(S(=O)(=O)Nc3nccs3)c(F)cc21 (stereo not drawn) [Compound 43-13, 3-(5-amino-1,2,3,4-tetrahydronaphthalen-1-yl)-5-fluoro-2-oxo-N-1,3-thiazol-2-yl-2,3-dihydro-1,3-benzoxazole-6-sulfonamide] | 74 | 405
24 | C[C@H](c1ccccc1C#CC1(N)CCCCC1)n1c(=O)oc2cc(S(=O)(=O)Nc3ncns3)c(F)cc21 [Compound 17-23, 3-[(1R)-1-{2-[(1-aminocyclohexyl)ethynyl]phenyl}ethyl]-5-fluoro-2-oxo-N-1,2,4-thiadiazol-5-yl-2,3-dihydro-1,3-benzoxazole-6-sulfonamide] | 2477 | 12
